Assay results as given in ChEMBL document CHEMBL1131760, “Substrate-selective mechanisms in biocatalysis demonstrated with a versatile and efficient aldolase antibody” (Bioorg Med Chem Lett, 1999).

Experiments:
[1] = Catalytic constant from Lineweaver-Burke analysis for antibody catalyzed retrograde aldol reaction with the compound; format: ADME
[2] = Michaelis constant (Km) was determined; format: ADME

Row | k cat [1] [s⁻¹] | Km [2] [µM] | Structure (SMILES)
1 | 0.00145 | 415 | CC(=O)CC(O)/C=C/c1ccccc1 (configuration not stated)
2 | 0.0067 | 522 | COc1ccc(/C=C/C(O)CC(C)=O)cc1 (configuration not stated)
3 | 0.00282 | 324 | CC(=O)CC(O)/C=C/c1ccc(Cl)cc1 (configuration not stated)
4 | 0.042 | 1250 | CC(=O)CC(O)/C=C/c1ccc(N(C)C)cc1 (configuration not stated)

Further lines, the molecule ahead of its results:

Row | Structure (SMILES) | k cat [1] [s⁻¹] | Km [2] [µM]
5 | CC(=O)CC(O)/C=C/c1ccc([N+](=O)[O-])cc1 (configuration not stated) | 0.0013 | 140
6 | CC(=O)CC(O)/C=C/c1ccc(C(F)(F)F)cc1 (configuration not stated) | 0.00227 | 239
